The values below come from ChEMBL document CHEMBL1914313, “Monosubstituted γ-lactam and conformationally constrained 1,3-diaminopropan-2-ol transition-state isostere inhibitors of β-secretase (BACE)” (Bioorg Med Chem Lett, 2011).

The nature of data set [1]: Selectivity for BACE1 over pepsin.
A short description of data set [2]: Selectivity for BACE1 over cathepsin E.
Data set [3] addresses T1, Beta-secretase 1 (Homo sapiens, UniProt P56817). The data set is described as follows: Inhibition of BACE1 by HPLC method.
In data set [4] the target is T1, Beta-secretase 1. The data set is described as follows: Inhibition of BACE1 in human HEK293 cells expressing swedish mutant APP. The format is cell-based.
The nature of data set [5]: Selectivity for BACE1 over cathepsin D.
The nature of data set [6]: Ratio drug level in brain to plasma of CD-IGS rat at 30 mg/kg, ip measured after 5 hrs. The format is ADME, organism-based. Details: dose 30 mg/kg, route intraperitoneal. The conditions noted are these: read-out: BPR.
Data set [7] deals with Rattus norvegicus. Put plainly: Antialzheimer activity in CD-IGS rat assessed as reduction in brain amyloid beta level at 30 mg/kg, ip measured after 5 hrs relative to control. The format is functional. Details: scale not given: the % may be the effect or the level left. The conditions noted are these: route intraperitoneal.
The nature of data set [8]: Plasma concentration in CD-IGS rat at 30 mg/kg, ip measured after 5 hrs. The format is ADME, organism-based. Details: dose 30 mg/kg, route intraperitoneal.
In data set [9] the test system is Rattus norvegicus. Put plainly: Antialzheimer activity in CD-IGS rat assessed as reduction in plasma amyloid beta level at 30 mg/kg, ip measured after 5 hrs relative to control. The format is functional. Details: scale not given: the % may be the effect or the level left. The conditions noted are these: route intraperitoneal.
Data set [10] relates to Mus musculus. Put plainly: Antialzheimer activity in transgenic 2576 mouse assessed as reduction in plasma amyloid beta level at 30 mg/kg, sc measured after 5 hrs relative to control. The format is functional. The arrangement: scale not given: the % may be the effect or the level left. The note with it: route subcutaneous.
Data set [11] in a line: Drug level in brain of transgenic 2576 mouse at 30 mg/kg, sc measured after 5 hrs. The format is ADME, organism-based. The arrangement: dose 30 mg/kg, route subcutaneous. The conditions noted are these: read-out: Drug uptake.
Data set [12] can be described thus: Ratio drug level in brain to plasma of transgenic 2576 mouse at 30 mg/kg, sc measured after 5 hrs. Details: dose 30 mg/kg, route subcutaneous. The format is ADME, organism-based. The note with it: read-out: BPR.
The test system of data set [13] is Mus musculus. The data set is described as follows: Antialzheimer activity in transgenic 2576 mouse assessed as reduction in brain amyloid beta level at 30 mg/kg, sc measured after 5 hrs relative to control. The format is functional, organism-based. The arrangement: dose 30 mg/kg.
The nature of data set [14]: Drug level in plasma of transgenic 2576 mouse at 30 mg/kg, sc measured after 5 hrs. The arrangement: dose 30 mg/kg, route subcutaneous. The format is ADME, organism-based.
Data set [15] in a line: Fraction unbound in plasma of transgenic 2576 mouse at 30 mg/kg, sc measured after 5 hrs. The arrangement: dose 30 mg/kg, route subcutaneous. The format is ADME, organism-based.
For data set [16], the target named is T1, Beta-secretase 1. The data set is described as follows: Ratio of IC50 for BACE1 in human HEK293 cells expressing swedish mutant AP to IC50 for BACE1. The format is cell-based.
Data set [17] in a line: Fraction unbound in plasma of CD-IGS rat at 30 mg/kg, ip measured after 5 hrs. The arrangement: dose 30 mg/kg, route intraperitoneal. The format is ADME, organism-based.

Structures are written as SMILES. Activity calls are given as the source filed them. The rule behind the calls is not given here. Some results are limits rather than exact numbers.

T1 sequence (P56817 whole entry): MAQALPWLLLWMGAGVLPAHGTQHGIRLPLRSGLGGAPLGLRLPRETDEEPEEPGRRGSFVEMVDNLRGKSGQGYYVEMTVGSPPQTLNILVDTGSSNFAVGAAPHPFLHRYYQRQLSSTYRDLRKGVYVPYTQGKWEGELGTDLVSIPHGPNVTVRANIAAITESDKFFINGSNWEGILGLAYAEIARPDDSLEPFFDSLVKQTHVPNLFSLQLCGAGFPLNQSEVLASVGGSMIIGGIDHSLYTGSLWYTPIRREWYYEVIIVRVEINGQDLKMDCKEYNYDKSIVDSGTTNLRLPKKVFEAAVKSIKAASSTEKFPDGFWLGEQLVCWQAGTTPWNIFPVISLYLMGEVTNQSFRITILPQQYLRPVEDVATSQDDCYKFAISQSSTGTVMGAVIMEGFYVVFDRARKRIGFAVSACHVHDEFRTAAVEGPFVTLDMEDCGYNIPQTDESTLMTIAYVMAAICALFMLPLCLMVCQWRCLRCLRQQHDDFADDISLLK

Regarding `CCCO[C@H]1CN[C@@H]([C@@H](O)[C@H](Cc2cc(F)cc(F)c2)NC(=O)[C@H](CCc2ccccc2)N2CC[C@](NC(C)=O)(C(C)CC)C2=O)C1` (stereo partly drawn), the Selectivity ratio in [1], in data set [2] and in data set [5] was 31 each time. For the same compound, the IC50 at Beta-secretase 1 [3] is 2.6 nM; on Beta-secretase 1 [4], 2.7 nM.

For the compound `CCCC[C@H]1CCN([C@@H](CCc2ccccc2)C(=O)N[C@@H](Cc2cc(F)cc(F)c2)[C@H](O)[C@H]2C[C@@H](OCCC)CN2)C1=O`, in [6], the Kp at 5 h was 0.02. The Activity is recorded as 114% in the data set on Rattus norvegicus [7] and 23% with Rattus norvegicus [9]. The IC50 against Beta-secretase 1 [3] is 19 nM; against Beta-secretase 1 [4] it was 84 nM. In addition, in data set [8], the concentration at 5 h amounted to 4000 nM.

For `CCC(C)[C@@]1(NC(C)=O)CCN([C@@H](CCc2ccccc2)C(=O)N[C@@H](Cc2cc(F)cc(F)c2)[C@H](O)[C@H]2C[C@H](O)CN2)C1=O` (stereo partly drawn), the Activity in the data set on Mus musculus [10] worked out at 66%. The Selectivity ratio in [1], in data set [2] and in data set [5] was 3400 throughout. In addition, the concentration at 5 h in data set [11] worked out at 680 nM; in data set [14] it was 780 nM. The Kp at 5 h in data set [12] turned out to be 0.87. Moreover, the IC50 at Beta-secretase 1 [3] worked out at 0.89 nM; on Beta-secretase 1 [4], 11 nM. In addition, the result with Mus musculus [13] was inactive. The free fraction (fraction unbound) at 5 h in [15] stood at 0.1.

Consider `CCCC[C@H]1CCN([C@@H](C)C(=O)N[C@@H](Cc2cc(F)cc(F)c2)[C@H](O)[C@H]2Cc3ccccc3CN2)C1=O`, for which the Ratio IC50 on Beta-secretase 1 [16] is greater than 10. This compound also had an IC50 against Beta-secretase 1 [4] of 720 nM.

In the case of `CCCC[C@H]1CCN([C@@H](CCc2ccccc2)C(=O)N[C@@H](Cc2cc(F)cc(F)c2)[C@H](O)[C@H]2Cc3ccccc3CN2)C1=O`, the Ratio IC50 on Beta-secretase 1 [16] is greater than 10. The same compound had an IC50 against Beta-secretase 1 [4] of 1400 nM.

Take `CCCC[C@H]1CCN([C@@H](C)C(=O)N[C@@H](Cc2cc(F)cc(F)c2)[C@H](O)CNCc2cccc(OC)c2)C1=O`: in data set [6], the Kp at 5 h turned out to be 0.18. The values for the Activity in the data set on Rattus norvegicus [7] and with Rattus norvegicus [9] were 112% and 26%, respectively. The compound further returned a fraction unbound at 5 h in data set [17] of 0.029. Further, the values for the IC50 against Beta-secretase 1 [3] and on Beta-secretase 1 [4] were 60 nM and 81 nM, respectively. The compound also gave a concentration at 5 h in data set [8] of 1600 nM.
